In article PMC9329436, “Optimization of the 4-anilinoquin(az)oline scaffold as epidermal growth factor receptor (EGFR) inhibitors for chordoma utilizing a toxicology profiling assay platform” (Scientific Reports, 2022):

How the values were obtained:
Assay in all cases: 33PanQinase activity assay
Type in all cases: biochemical
[1] = molecular target: RIPK2 (Homo sapiens, UniProt O43353); conditions: for Residual activity, RIPK2: kinase RIPK2, singlicate
Description: (§1) Table S4. Profiling of two compounds at two concentrations against 320 wild-type protein kinases; singlicate measurement; Residual activities (% of control).

[2] = molecular target: MINK1 (Homo sapiens, UniProt Q8N4C8); conditions: for Residual activity: singlicate
Description: as §1

[3] = molecular target: T1, DDR2 (Homo sapiens, UniProt Q16832); conditions: for Residual activity: singlicate
T1 sequence (Q16832 22-855): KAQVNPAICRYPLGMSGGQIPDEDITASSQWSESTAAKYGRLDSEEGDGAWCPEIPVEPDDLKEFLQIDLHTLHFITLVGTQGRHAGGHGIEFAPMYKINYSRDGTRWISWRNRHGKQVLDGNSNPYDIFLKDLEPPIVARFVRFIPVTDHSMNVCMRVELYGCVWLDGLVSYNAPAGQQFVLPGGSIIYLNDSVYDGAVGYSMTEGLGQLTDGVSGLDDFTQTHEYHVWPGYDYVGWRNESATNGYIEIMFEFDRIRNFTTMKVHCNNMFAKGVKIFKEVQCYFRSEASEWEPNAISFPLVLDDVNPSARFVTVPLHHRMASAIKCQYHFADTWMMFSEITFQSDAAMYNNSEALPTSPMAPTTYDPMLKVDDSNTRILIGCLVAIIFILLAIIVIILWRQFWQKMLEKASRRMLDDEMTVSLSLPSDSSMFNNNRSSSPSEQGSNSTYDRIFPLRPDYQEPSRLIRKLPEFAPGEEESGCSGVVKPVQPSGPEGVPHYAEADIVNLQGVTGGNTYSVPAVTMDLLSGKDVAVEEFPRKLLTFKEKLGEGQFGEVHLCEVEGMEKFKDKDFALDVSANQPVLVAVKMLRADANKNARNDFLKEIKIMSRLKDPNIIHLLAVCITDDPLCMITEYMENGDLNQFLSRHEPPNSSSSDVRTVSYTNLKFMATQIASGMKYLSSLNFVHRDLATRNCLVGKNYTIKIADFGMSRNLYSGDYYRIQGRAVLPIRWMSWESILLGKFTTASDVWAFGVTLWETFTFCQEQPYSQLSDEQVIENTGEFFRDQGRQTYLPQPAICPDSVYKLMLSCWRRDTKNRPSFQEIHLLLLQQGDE
Description: as §1

[4] = molecular target: ERBB2 (Homo sapiens, UniProt P04626); conditions: for Residual activity: singlicate
Description: as §1

[5] = molecular target: T2, EPHA6 (Homo sapiens, UniProt Q9UF33); conditions: for Residual activity: singlicate
T2 sequence (Q9UF33 23-1036): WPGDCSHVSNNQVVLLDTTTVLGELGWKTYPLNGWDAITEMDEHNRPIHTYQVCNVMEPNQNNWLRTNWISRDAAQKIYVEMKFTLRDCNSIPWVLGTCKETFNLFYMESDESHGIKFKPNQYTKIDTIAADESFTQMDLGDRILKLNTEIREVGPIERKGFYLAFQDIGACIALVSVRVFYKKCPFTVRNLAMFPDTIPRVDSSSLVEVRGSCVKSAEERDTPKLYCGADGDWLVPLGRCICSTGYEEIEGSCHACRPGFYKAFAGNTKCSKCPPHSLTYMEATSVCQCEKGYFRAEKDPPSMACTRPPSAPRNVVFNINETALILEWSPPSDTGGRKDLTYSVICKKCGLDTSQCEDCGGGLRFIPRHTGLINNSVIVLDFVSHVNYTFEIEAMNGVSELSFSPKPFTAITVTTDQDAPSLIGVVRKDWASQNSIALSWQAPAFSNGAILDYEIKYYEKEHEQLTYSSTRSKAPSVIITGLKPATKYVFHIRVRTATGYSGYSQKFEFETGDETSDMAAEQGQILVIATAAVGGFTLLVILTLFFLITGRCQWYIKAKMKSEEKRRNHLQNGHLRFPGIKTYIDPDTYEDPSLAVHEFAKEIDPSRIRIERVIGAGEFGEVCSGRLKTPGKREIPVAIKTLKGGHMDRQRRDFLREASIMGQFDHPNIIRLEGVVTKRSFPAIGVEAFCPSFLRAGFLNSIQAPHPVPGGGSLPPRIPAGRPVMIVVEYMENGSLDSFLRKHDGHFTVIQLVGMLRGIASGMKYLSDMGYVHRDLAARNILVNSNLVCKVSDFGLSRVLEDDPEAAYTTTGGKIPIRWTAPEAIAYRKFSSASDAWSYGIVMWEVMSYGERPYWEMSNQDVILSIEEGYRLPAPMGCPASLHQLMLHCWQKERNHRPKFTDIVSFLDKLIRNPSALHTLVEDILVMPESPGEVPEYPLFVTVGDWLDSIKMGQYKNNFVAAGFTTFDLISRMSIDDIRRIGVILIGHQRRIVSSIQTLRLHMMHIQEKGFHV
Description: as §1

[6] = molecular target: EGFR (Homo sapiens, UniProt P00533); conditions: for Residual activity: EGF-R, singlicate
Description: as §1

[7] = molecular target: MAP4K5 (Homo sapiens, UniProt Q9Y4K4); conditions: for Residual activity: singlicate
Description: as §1

[8] = molecular target: Aurora-B (Homo sapiens, UniProt Q96GD4); conditions: for Residual activity: Aurora-B, singlicate
Description: as §1

[9] = molecular target: SLK (Homo sapiens, UniProt Q9H2G2); conditions: for SLK inhibition: 10 μM; for Residual activity, SLK: kinase SLK, singlicate
Description: as §1

[10] = molecular target: LCK (Homo sapiens, UniProt P06239); conditions: for Residual activity: LCK, singlicate
Description: as §1

[11] = molecular target: MKNK2 (Homo sapiens, UniProt Q9HBH9); conditions: for Residual activity: singlicate
Description: as §1

[12] = molecular target: MAP4K4 (Homo sapiens, UniProt O95819); conditions: for MAP4K4 inhibition: 10 μM; for Residual activity: singlicate
Description: as §1

LCK, sequence (P06239 whole entry): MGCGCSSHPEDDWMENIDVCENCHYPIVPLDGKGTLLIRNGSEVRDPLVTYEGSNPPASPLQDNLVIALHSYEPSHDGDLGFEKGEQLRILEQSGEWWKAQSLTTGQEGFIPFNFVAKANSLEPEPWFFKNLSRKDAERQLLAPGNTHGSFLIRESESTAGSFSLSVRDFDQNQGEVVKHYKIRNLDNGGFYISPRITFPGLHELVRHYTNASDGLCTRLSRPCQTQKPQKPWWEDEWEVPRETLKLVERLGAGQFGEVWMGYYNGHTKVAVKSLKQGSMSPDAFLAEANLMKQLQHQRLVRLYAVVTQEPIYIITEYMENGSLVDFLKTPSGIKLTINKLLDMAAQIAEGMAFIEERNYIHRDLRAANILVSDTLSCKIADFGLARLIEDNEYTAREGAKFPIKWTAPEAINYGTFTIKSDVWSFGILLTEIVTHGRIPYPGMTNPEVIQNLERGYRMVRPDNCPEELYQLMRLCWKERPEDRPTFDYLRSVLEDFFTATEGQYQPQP
RIPK2, sequence (O43353 whole entry): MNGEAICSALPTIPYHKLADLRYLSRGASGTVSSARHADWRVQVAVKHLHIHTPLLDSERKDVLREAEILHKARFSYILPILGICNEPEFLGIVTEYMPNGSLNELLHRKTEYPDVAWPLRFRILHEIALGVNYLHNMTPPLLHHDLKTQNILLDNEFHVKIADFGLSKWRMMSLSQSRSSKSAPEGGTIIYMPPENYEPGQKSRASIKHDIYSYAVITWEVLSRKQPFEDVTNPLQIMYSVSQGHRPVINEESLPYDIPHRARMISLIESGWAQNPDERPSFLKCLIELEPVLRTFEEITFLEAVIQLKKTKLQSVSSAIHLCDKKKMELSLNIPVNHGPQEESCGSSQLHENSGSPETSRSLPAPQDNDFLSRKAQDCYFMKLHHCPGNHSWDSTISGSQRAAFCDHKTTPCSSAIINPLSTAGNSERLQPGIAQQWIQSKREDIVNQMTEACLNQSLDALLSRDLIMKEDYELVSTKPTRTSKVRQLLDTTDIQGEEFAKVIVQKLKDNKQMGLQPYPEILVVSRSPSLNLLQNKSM
MKNK2, sequence (Q9HBH9 whole entry): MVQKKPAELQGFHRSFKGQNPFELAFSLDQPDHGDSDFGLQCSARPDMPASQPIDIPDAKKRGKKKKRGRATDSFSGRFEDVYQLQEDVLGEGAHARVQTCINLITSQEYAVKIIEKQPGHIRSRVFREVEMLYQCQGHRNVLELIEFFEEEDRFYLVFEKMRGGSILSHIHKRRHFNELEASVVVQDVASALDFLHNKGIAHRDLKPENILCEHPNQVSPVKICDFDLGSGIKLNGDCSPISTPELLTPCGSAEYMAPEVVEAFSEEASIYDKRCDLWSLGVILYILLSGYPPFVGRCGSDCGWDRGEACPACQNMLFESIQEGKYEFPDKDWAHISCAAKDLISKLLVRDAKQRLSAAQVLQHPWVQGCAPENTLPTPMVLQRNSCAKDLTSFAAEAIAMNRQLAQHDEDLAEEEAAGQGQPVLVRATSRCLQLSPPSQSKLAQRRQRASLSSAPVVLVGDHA
MINK1, sequence (Q8N4C8 whole entry): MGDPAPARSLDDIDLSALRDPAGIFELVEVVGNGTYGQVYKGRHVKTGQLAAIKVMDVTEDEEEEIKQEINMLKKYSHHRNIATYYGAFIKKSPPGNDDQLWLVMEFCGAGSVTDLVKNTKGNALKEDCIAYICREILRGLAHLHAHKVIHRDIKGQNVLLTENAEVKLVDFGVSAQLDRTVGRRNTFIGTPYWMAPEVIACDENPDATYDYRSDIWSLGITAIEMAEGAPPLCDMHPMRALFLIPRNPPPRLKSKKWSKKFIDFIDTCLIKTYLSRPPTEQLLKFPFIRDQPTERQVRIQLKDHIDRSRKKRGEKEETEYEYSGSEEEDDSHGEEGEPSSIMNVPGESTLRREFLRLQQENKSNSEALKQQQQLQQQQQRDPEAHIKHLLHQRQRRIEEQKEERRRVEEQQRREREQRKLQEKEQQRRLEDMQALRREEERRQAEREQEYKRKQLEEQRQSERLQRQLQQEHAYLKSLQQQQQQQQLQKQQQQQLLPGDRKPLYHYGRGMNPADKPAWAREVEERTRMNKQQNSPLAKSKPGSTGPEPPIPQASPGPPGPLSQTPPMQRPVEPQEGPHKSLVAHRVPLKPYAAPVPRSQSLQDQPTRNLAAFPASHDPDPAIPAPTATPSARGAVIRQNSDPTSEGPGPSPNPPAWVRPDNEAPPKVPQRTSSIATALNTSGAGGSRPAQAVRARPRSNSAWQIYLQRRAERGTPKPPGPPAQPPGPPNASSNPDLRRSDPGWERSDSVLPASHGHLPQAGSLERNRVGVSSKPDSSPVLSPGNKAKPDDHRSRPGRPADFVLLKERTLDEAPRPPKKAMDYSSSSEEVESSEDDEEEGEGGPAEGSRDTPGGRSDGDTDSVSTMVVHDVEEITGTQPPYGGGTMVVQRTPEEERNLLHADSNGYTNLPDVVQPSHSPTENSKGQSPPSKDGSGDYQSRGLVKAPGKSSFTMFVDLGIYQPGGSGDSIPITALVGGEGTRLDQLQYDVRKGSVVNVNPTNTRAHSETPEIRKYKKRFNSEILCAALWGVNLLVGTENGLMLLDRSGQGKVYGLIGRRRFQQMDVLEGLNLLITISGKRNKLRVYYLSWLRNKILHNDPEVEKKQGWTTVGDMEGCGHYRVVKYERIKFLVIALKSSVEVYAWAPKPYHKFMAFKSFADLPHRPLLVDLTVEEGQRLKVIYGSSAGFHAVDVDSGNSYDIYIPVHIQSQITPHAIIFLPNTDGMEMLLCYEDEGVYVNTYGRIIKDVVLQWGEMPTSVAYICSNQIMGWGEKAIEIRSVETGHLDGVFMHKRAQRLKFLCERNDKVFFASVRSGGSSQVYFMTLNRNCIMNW
SLK, sequence (Q9H2G2 whole entry): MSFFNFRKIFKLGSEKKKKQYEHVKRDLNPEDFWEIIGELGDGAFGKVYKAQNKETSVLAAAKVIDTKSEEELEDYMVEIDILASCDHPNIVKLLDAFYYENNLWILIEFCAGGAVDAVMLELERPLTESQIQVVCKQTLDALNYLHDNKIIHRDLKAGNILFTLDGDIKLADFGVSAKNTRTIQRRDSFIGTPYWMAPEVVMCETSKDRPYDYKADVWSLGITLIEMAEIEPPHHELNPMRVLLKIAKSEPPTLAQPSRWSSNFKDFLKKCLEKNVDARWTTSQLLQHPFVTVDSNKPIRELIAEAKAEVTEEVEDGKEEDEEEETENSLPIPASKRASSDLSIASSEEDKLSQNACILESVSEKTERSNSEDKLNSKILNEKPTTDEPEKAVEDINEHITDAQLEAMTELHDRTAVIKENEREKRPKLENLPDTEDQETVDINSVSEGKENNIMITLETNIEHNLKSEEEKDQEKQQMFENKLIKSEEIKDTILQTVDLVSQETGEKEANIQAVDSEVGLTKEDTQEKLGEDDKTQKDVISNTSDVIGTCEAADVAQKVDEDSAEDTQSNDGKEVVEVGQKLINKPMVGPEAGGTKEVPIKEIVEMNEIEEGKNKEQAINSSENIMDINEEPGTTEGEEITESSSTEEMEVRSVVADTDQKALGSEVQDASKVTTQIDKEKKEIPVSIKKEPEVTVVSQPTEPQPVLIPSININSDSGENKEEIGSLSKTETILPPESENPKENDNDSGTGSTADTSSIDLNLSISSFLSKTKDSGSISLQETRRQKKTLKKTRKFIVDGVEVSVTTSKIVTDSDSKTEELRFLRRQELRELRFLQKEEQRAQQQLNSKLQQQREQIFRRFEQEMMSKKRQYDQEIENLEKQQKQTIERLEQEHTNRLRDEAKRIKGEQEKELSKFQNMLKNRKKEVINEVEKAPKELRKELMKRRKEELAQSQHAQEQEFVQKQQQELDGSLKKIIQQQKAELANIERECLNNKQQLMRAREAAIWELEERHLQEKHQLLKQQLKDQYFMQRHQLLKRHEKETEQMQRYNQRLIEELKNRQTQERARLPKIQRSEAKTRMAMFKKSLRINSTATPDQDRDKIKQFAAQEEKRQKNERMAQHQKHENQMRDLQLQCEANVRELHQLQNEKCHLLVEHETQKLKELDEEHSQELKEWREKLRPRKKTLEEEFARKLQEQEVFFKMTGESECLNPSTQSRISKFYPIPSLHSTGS
MAP4K5, sequence (Q9Y4K4 whole entry): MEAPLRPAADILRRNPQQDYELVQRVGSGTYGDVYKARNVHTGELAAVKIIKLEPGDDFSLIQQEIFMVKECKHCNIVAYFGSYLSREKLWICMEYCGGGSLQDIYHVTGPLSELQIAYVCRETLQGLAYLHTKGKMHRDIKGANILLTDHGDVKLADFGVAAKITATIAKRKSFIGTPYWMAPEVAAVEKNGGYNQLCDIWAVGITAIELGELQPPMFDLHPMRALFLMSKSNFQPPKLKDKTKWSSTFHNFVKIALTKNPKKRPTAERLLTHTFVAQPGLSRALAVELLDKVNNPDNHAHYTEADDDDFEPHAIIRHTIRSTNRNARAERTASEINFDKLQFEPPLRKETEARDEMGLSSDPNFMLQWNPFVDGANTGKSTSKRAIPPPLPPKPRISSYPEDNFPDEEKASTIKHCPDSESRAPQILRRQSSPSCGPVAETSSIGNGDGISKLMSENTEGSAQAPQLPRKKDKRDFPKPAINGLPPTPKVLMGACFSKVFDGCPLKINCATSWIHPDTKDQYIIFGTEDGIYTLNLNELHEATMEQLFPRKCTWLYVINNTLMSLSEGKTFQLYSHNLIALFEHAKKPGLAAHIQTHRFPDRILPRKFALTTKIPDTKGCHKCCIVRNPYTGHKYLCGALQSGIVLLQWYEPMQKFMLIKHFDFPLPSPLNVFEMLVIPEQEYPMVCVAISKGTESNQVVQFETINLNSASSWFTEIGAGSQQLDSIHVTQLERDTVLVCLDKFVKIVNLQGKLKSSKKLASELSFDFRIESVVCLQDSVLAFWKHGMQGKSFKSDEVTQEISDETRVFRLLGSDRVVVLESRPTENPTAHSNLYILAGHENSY

C#Cc1cc(Nc2ncnc3cc(I)ccc23)ccc1Cl [Compound 41]
Residual activity, RIPK2 ([1]; assay conc. 1.0E-06 M): 96 % of control
Residual activity, RIPK2 ([1]; assay conc. 1.0E-07 M): 107 % of control
Residual activity ([2]; MINK1, 1.0E-06 M): 54 % of control
Residual activity ([2]; MINK1, 1.0E-07 M): 64 % of control
Residual activity ([3]; DDR2, 1.0E-06 M): 81 % of control
Residual activity ([3]; DDR2, 1.0E-07 M): 91 % of control
Residual activity ([4]; ERBB2, 1.0E-06 M): 78 % of control
Residual activity ([4]; ERBB2, 1.0E-07 M): 96 % of control
Residual activity ([5]; EPHA6, 1.0E-06 M): 75 % of control
Residual activity ([5]; EPHA6, 1.0E-07 M): 94 % of control
EGFR inhibition ([6]; 1 μM): > 50%
EGFR inhibition ([6]; 10 μM): > 50%
Residual activity ([6]; 1.0E-06 M): 8 % of control
Residual activity ([6]; 1.0E-07 M): 28 % of control
Residual activity ([7]; MAP4K5, 1.0E-06 M): 70 % of control
Residual activity ([7]; MAP4K5, 1.0E-07 M): 101 % of control
Aurora-B inhibition ([8]; 10 μM): > 50%
Residual activity ([8]; 1.0E-06 M): 30 % of control
Residual activity ([8]; 1.0E-07 M): 75 % of control
SLK inhibition [9]: > 50%
Residual activity, SLK ([9]; assay conc. 1.0E-06 M): 32 % of control
Residual activity, SLK ([9]; assay conc. 1.0E-07 M): 67 % of control
Residual activity ([10]; 1.0E-06 M): 59 % of control
Residual activity ([10]; 1.0E-07 M): 78 % of control
Residual activity ([11]; MKNK2, 1.0E-06 M): 74 % of control
Residual activity ([11]; MKNK2, 1.0E-07 M): 92 % of control
MAP4K4 inhibition [12]: > 50%
Residual activity ([12]; MAP4K4, 1.0E-06 M): 41 % of control
Residual activity ([12]; MAP4K4, 1.0E-07 M): 73 % of control

C#Cc1cc(Nc2ncnc3cc(OC)c(OC)cc23)ccc1Cl [Compound 45]
RIPK2 inhibition ([1]; 10 μM): > 50%
Residual activity, RIPK2 ([1]; assay conc. 1.0E-06 M): 13 % of control
Residual activity, RIPK2 ([1]; assay conc. 1.0E-07 M): 59 % of control
MINK1 inhibition ([2]; 10 μM): > 50%
Residual activity ([2]; MINK1, 1.0E-06 M): 29 % of control
Residual activity ([2]; MINK1, 1.0E-07 M): 86 % of control
DDR2 inhibition ([3]; 10 μM): > 50%
Residual activity ([3]; DDR2, 1.0E-06 M): 35 % of control
Residual activity ([3]; DDR2, 1.0E-07 M): 87 % of control
ERBB2 inhibition ([4]; 1 μM): moderate inhibition
Residual activity ([4]; ERBB2, 1.0E-06 M): 11 % of control
Residual activity ([4]; ERBB2, 1.0E-07 M): 44 % of control
EPHA6 inhibition ([5]; 10 μM): > 50%
Residual activity ([5]; EPHA6, 1.0E-06 M): 35 % of control
Residual activity ([5]; EPHA6, 1.0E-07 M): 89 % of control
EGFR inhibition ([6]; 1 μM): > 50%
EGFR inhibition ([6]; 10 μM): > 50%
Residual activity ([6]; 1.0E-06 M): 0 % of control
Residual activity ([6]; 1.0E-07 M): 2 % of control
MAP4K5 inhibition ([7]; 10 μM): > 50%
Residual activity ([7]; MAP4K5, 1.0E-06 M): 22 % of control
Residual activity ([7]; MAP4K5, 1.0E-07 M): 108 % of control
Residual activity ([8]; 1.0E-06 M): 43 % of control
Residual activity ([8]; 1.0E-07 M): 91 % of control
SLK inhibition [9]: > 50%
Residual activity, SLK ([9]; assay conc. 1.0E-06 M): 18 % of control
Residual activity, SLK ([9]; assay conc. 1.0E-07 M): 76 % of control
LCK inhibition ([10]; 10 μM): > 50%
Residual activity ([10]; 1.0E-06 M): 36 % of control
Residual activity ([10]; 1.0E-07 M): 94 % of control
MKNK2 inhibition ([11]; 10 μM): > 50%
Residual activity ([11]; MKNK2, 1.0E-06 M): 46 % of control
Residual activity ([11]; MKNK2, 1.0E-07 M): 78 % of control
MAP4K4 inhibition [12]: > 50%
Residual activity ([12]; MAP4K4, 1.0E-06 M): 48 % of control
Residual activity ([12]; MAP4K4, 1.0E-07 M): 87 % of control
